{
  "source": "patent US9677063B2",
  "about": "“Use of a cysteine protease of plasmodium vivax” (SAMSUNG ELECTRONICS CO., LTD., priority 2009, dated 2017)",
  "key": {"rVX-4 [1]": {"test_system": "rVX-4", "details": "fully processed 28 kDa rVX-4", "experimental": "The purified rVX-4 was refolded and activated, and aliquots collected every 30 min were analyzed by 12% SDS-PAGE with Coomassie staining (left). The proteolytic activity of fully processed rVX-4 was analyzed by a gelatin gel-zymogram (right).\nFor activity gel electrophoresis, the obtained refolded rVX-4 was mixed with SDS-PAGE sample buffer lacking 2-mercaptoethanol and subjected to 12% SDS-PAGE co-polymerized with 0.1% gelatin. The gel was washed with 2% Triton X-100 (30 min), incubated overnight with 100 mM sodium acetate (pH 5.5) containing 10 mM DTT at 37° C. and stained with Coomassie Blue."}, "rVX-4 [2]": {"test_system": "rVX-4", "details": "rVX-4 1 μM, pH 5.5, 6.5, 7.5, 30 min room temperature, substrate Z-LR-MCA", "experimental": "The optimal pH was assessed in 100 mM sodium acetate (pH 4.5-5.5), 100 mM sodium phosphate (pH 6.0-6.5) and 100 mM Tris-HCl (pH 7.0-8.5). The enzymes (50 nM) were added to each buffer supplemented with 10 mM DTT and 5 μM Z-L-phenylalanyl-L-arginine 4-methyl-coumaryl-7-amide (Z-FR-MCA), Z-leucyl-L-arginine-MCA (Z-LR-MCA), or Z-L-arginyl-L-arginine 4-methyl-coumaryl-7-amide (Z-RR-MCA) (Peptide International). The appropriate buffers were separately employed as controls at each pH. Enzyme activity was measured as described above. The effects of reducing agents were examined under various concentrations of GSH, and pH stability was examined at pH 5.0 and 8.0 by incubating rVX-4 at 37° C. in the appropriate buffer.\nResidual activities (%) were determined using Z-LR-MCA as a substrate."}, "rVX-4 [3]": {"test_system": "rVX-4", "details": "E-64 1 μM, in presence of pepstatin A, pH 5.0-7.0, rVX-4 50 nM, 3 h at 37° C.", "experimental": "Recombinant PvPMs expressed in E. coli cells were purified by Ni-NTA chromatography (Qiagen) and refolded as described above. rVX-4 (50 nM) was incubated with PvPMs (20 μg each) in 100 mM sodium acetate (pH 5.0-5.5), 100 mM sodium phosphate (pH 6.0-6.5), or 100 mM Tris-HCl (pH 7.0-7.5) supplemented with 10 mM DTT for 3 h. The experiments were also performed in the presence of E-64 (1 μM) and/or pepstatin A (10 μM, Sigma-Aldrich).\nThe inventors examined possible roles for VX-4 during maturation of recombinant PvPM4 (rPvPM4), which was expressed in E. coli as above, and the results are shown in FIG. 5(A). […] Recombinant PvPM 4 (20 μg) was incubated with rVX-4 (50 nM) supplemented with 10 mM DTT at different pH values with or without pepstatin A (PepA, 10 μM) or E-64 (1 μM) for 3 h at 37° C. The reactants were analyzed by 12% SDS-PAGE."}, "VX-3": {"test_system": "VX-3", "assay": "Substrate hydrolysis kinetics for vivapains (peptide-MCA substrates)", "assay_type": "biochemical, Plasmodium vivax", "details": "pH 5.5, 6.5, 7.5", "method": "Cysteine protease activity was ascertained by the hydrolysis of benzyloxycarbonyl-L-leucyl-L-arginine 4-methyl-coumaryl-7-amide (Z-LR-MCA) (Peptide International, Louisville, Ky.). […] The release of fluorescence was assessed at excitation and emission wavelengths of 355 nm and 460 nm with a SpectraMAX Gemini fluorometer (Molecular Devices, Sunnyvale, Calif.).\n(§1) The release of MCA was monitored over 10 min at room temperature as described above. Activities were compared as fluorescence over time. The kinetic constants Km and Vmax were determined using GraphPad software."}, "VX-2": {"test_system": "VX-2", "assay": "Substrate hydrolysis kinetics for vivapains (peptide-MCA substrates)", "assay_type": "biochemical, Plasmodium vivax", "details": "pH 5.5, 6.5, 7.5", "method": "(§2) Cysteine protease activity was ascertained by the hydrolysis of benzyloxycarbonyl-L-leucyl-L-arginine 4-methyl-coumaryl-7-amide (Z-LR-MCA) (Peptide International, Louisville, Ky.). Enzyme (xVX, 30 μl; 200 nM) was added to 100 mM sodium acetate (220 μl, pH 5.5) containing 5 μM Z-LR-MCA and 10 mM DTT. The release of fluorescence was assessed at excitation and emission wavelengths of 355 nm and 460 nm with a SpectraMAX Gemini fluorometer (Molecular Devices, Sunnyvale, Calif.).\nas §1"}, "VX-4 [4]": {"test_system": "VX-4", "assay": "Substrate hydrolysis kinetics for vivapains (peptide-MCA substrates)", "assay_type": "biochemical, Plasmodium vivax", "method": "as §2, §1"}, "VX-4 [5]": {"test_system": "VX-4", "assay": "Determination of pH optimum of enzyme activity against peptide substrates", "assay_type": "biochemical, Plasmodium vivax", "details": "5 μM substrate, 10 mM DTT, 37° C., pH 4.5-8.5", "method": "Enzyme activity was measured as described above.\nFIG. 3(C) relates to determination of pH optimum. […] Activity was measured at 37° C. each against Z-FR-MCA (▪), Z-LR-MCA (∘), and Z-RR-MCA (●). Maximal activity was presented as 100%. As shown in FIG. 3(C), the enzymatic activity was highest at pH 5.5. The pH-optimum was substantially different with a substrate containing a basic AA at P2 (Z-RR-MCA) with maximal activity at pH 6.5, and activity seen above pH 8."}, "[6]": {"test_system": "VX-4 mutants containing E180A", "assay": "Activity of mutant VX-4s against peptide substrates", "assay_type": "biochemical, Plasmodium vivax", "details": "100 mM Tris-HCl pH 7.5, 10 mM DTT, 37° C.", "method": "Site-directed mutagenesis was performed using a QuickChange II Site-Directed Mutagenesis Kit (Stratagene, Calif.). A pair of complementary primers with 39 bases was designed and a mutation to replace Ala90 to Ile (A90I), Gly154 to Ser (G154S) or Glu180 to Ala (E180A) was placed in the middle of the primers, as follows: […]\nParental DNA inserted in pQE-30 (Qiagen, Calif.) as prepared in Example 2 was amplified using Pfu Ultra HF DNA polymerase with these primers for 16 cycles in a DNA thermal cycler (Perkin-Elmer). After digestion of the parental DNA with Dpn I, the amplified DNA with nucleotide substitution was incorporated and transformed into E. coli XL1-Blue (Stratagene). The mutations were verified by DNA sequencing. Double and triple point mutagenesis of A90I, G154S, and E180A were also done as described above. Each mutant plasmid was transformed into competent E. coli M15 (pREP4) cells (Qiagen). Each recombinant protein was individually expressed, purified and refolded as described above.\nIn assays against peptide substrates, all of the mutants harboring A901 and G154S by single or multiple substitutions maintained the pH-dependent substrate specificity of wild-type VX-4. Conversely, those containing E180A lost activity against Z-RR-MCA at pH 7.5 (FIG. 4(C)). […]"}, "[7]": {"test_system": "P. vivax plasmepsin 4 (PvPM4)", "assay": "Autocatalytic processing of recombinant PvPM4 (SDS-PAGE)", "assay_type": "biochemical, Plasmodium vivax", "details": "pepstatin A 10 μM, 3 h at 37° C.", "method": "The reactants were analyzed by 12% SDS-PAGE."}, "[8]": {"details": "rVX-4, pH 7.5 compared with pH 5.5"}},
  "note": "Square brackets hold non-standard residues; d marks the D form. Peptide text beside a SMILES is read from it. * marks the point of attachment. Sta = CC(C)C[C@H](N)[C@@H](O)CC(=O)O; AMC = Cc1cc(=O)oc2cc(N*)ccc12; Isovaleryl = CC(C)CC(=O)*; Cbz = O=C(OCc1ccccc1)*",
  "data": [
    {"smiles": "CC(C)C[C@H](NC(=O)[C@H]1O[C@@H]1C(=O)O)C(=O)NCCCCN=C(N)N", "note": "(relative stereo) [E-64, trans-epoxysuccinyl-L-leuciloamido-(4-guanidino) butane]", "values": [
      {"measurement": "inhibition of protease activity in gelatin-gel electrophoresis", "setting": "rVX-4 [1]", "value": "completely inhibited"},
      {"measurement": "E-64 concentration needed to inhibit rVX-4 depending on pH", "setting": "rVX-4 [2]", "value": "increased concentrations of E-64 to inhibit rVX-4 at higher pH"},
      {"measurement": "effect on rVX-4 cleavage of rPvPM4", "setting": "rVX-4 [3]", "value": "specifically and significantly inhibited"}
    ]},
    {"smiles": "Cc1cc(=O)oc2cc(NC(=O)[C@H](CCCNC(=N)N)NC(=O)[C@H](Cc3ccccc3)NC(=O)OCc3ccccc3)ccc12", "note": "[Z-FR-MCA, benzyloxycarbonyl-L-phenylalanyl-L-arginine 4-methyl-coumaryl-7-amide] (Cbz-Phe-Arg-{AMC})", "values": [
      {"measurement": "hydrolysis by rVX-3", "setting": "VX-3", "value": "could not hydrolyze"},
      {"measurement": "hydrolysis by rVX-2", "setting": "VX-2", "value": "could not hydrolyze"},
      {"measurement": "hydrolysis by rVX-4", "setting": "VX-4 [4]; pH 7.5", "value": "not hydrolyzed"},
      {"measurement": "pH of maximal enzyme activity", "setting": "VX-4 [5]", "value": 5.5}
    ]},
    {"smiles": "Cc1cc(=O)oc2cc(NC(=O)[C@H](CCCNC(=N)N)NC(=O)[C@H](CC(C)C)NC(=O)OCc3ccccc3)ccc12", "note": "[Z-LR-MCA, benzyloxycarbonyl-L-leucyl-L-arginine 4-methyl-coumaryl-7-amide]", "values": [
      {"measurement": "decrease of kcat/Km at pH 7.5", "setting": "VX-4 [4]; [8]", "value": 5.6, "unit": "fold"},
      {"measurement": "pH of maximal enzyme activity", "setting": "VX-4 [5]", "value": 5.5}
    ]},
    {"smiles": "Cc1cc(=O)oc2cc(NC(=O)[C@H](CCCNC(=N)N)NC(=O)[C@H](CCCNC(=N)N)NC(=O)OCc3ccccc3)ccc12", "note": "[Z-RR-MCA, benzyloxycarbonyl-L-arginyl-L-arginine 4-methyl-coumaryl-7-amide] (Cbz-Arg-Arg-{AMC})", "values": [
      {"measurement": "hydrolysis by rVX-3", "setting": "VX-3", "value": "could not hydrolyze"},
      {"measurement": "hydrolysis by rVX-2", "setting": "VX-2", "value": "could not hydrolyze"},
      {"measurement": "increase of kcat/Km at pH 7.5", "setting": "VX-4 [4]; [8]", "value": 2.6, "unit": "fold"},
      {"measurement": "pH of maximal enzyme activity", "setting": "VX-4 [5]", "value": 6.5},
      {"measurement": "activity of E180A-containing VX-4 mutants against substrate", "setting": "[6]", "value": "lost activity"}
    ]},
    {"smiles": "CC(C)CC(=O)N[C@H](C(=O)N[C@H](C(=O)N[C@@H](CC(C)C)[C@@H](O)CC(=O)N[C@@H](C)C(=O)N[C@@H](CC(C)C)[C@@H](O)CC(=O)O)C(C)C)C(C)C", "note": "[pepstatin A] (Isovaleryl-VV[Sta]A[Sta]-OH)", "values": [
      {"measurement": "effect on autocatalytic processing of rPvPM4", "setting": "[7]", "value": "completely blocked"}
    ]}
  ]
}
